Source: paper PMC6429585, “Synthesis, Microtubule-Binding Affinity, and Antiproliferative Activity of New Epothilone Analogs and of an EGFR-Targeted Epothilone-Peptide Conjugate” (International Journal of Molecular Sciences, 2019)
Read-outs that look alike come from different tables or passages of the source.

Assays:
A431 cells = test: cells; assay type: cell-based, human; settings: Homo sapiens, read-out: IC50 A431
Method: (§1) Experiments were performed in RPMI (SW480 cells) or DMEM (HEK293 and A431 cells) medium (Gibco) supplemented with 2 mM glutamine, 10% fetal bovine serum, 100 IU/mL penicillin, 100 µg/mL streptomycin, and 1 µg/mL amphotericin B (all from Sigma) at 37 °C and 5% CO2. Cells were seeded into 96-well microtiter plates and compounds were added in DMSO in serial dilutions in triplicate. The final DMSO (dimethylsulfoxide) concentration was 0.1%. After 72 h, a WST-1 reagent was added and the absorption was measured at 450 nm with a plate reader after 30 min to 4 h. The percentage of viable cells was calculated based on vehicle-treated cells and was plotted in GraphPadPrism. At least three independent experiments were performed.
(§2) A431 cells were obtained from CLS. The other cell lines were available in the laboratory. WST-1 was purchased from Roche.

HEK293 cells = test: cells; assay type: cell-based, human; settings: Homo sapiens, read-out: IC50 HEK293
Method: as §1, §2

SW480 cells = test: cells; assay type: cell-based, human; settings: Homo sapiens, read-out: IC50 SW480
Method: as §1, §2

[1] = biological target: glutaraldehyde-stabilized microtubules (paclitaxel binding site); test: Microtubule binding affinity by displacement of Flutax-2 (fluorescence anisotropy); design: species or system calf
Method: The binding affinity of epothilone analogs 1, 14, and 16 and of targeted conjugate 4 for microtubules was determined as previously described by Díaz and co-workers, using partly cross-linked microtubules and determining the changes in fluorescence anisotropy upon displacement of the fluorescent taxol derivative Flutax-2 [42, 43] (Figure S3).
Purified calf-brain tubulin and chemicals were obtained as previously described. Stabilized, moderately crosslinked microtubules were prepared as reported in [42]. Binding constants of azathilones to stabilized microtubules were measured as previously described by Buey et al.. For details of the experimental procedures and Flutax-2 displacement curves cf. Section SI.3 of the Supplementary Materials.
SI.3. Disulfide cleavage asssay
Figure S2. […]
60 mg of frozen tubulin were thawed and loaded on a Sephadex G-25 column pre-equilibrated with cold 1 mM EGTA, 3.4 M glycerol, 10 mM sodium phosphate pH 6.8 buffer supplemented with 0.1 mM GTP. […] Fractions were collected and analyzed by spectrophotometry at 295 nm on a Thermo Evolution 300LC device. […] The tubulin concentration of the supernatant was determined by spectrophotometry at a 1:20 dilution of 10 mM sodium phosphate buffer containing 1%
SDS. The concentration was calculated with an extinction coefficient of 107’000 M-1cm-1 at 276 nm. […]
The concentration was measured spectrophotometrically as previously. […]

EGFR = settings: read-out: IC50 for displacement of [^125I]-EGF from the EGFR; cited from earlier work
[2] = tested on: cross-linked stabilized microtubules; design: method as in earlier work; settings: cited from earlier work
EGFR (Homo sapiens) = EGFR (Homo sapiens) (UniProt P00533); test: SPR; settings: cited from earlier work
[3] = biological target: stabilized, moderately crosslinked microtubules (calf-brain tubulin) (calf (endogenous in calf brain)) (UniProt Q6B856); test: fluorescence polarisation; displacement of the fluorescent taxol derivative Flutax-2 from glutaraldehyde-stabilized, partly cross-linked microtubules, read by change in fluorescence anisotropy; 35 °C; association constant Kb

**Q.** With `C/C(=C\c1csc(C)n1)[C@@H]1C[C@@H]2O[C@@H]2CCC[C@H](C)[C@H](O)[C@@H](C)C(=O)C(C)(C)[C@@H](O)CC(=O)O1` [Epo A, Epothilone A] as the molecule, how does the IC50 (A431 cells; A-431, 72 h) read?
**A.** 0.00294 ± 0.0003 µM

**Q.** What about the IC50 (HEK293 cells; HEK293, 72 h) of the same molecule?
**A.** 0.00271 ± 0.00062 µM

**Q.** What about the IC50 (SW480 cells; SW480, 72 h) of the same molecule?
**A.** 0.0145 ± 0.00109 µM

**Q.** For `Cc1nc2cc([C@@H]3C[C@@H]4C[C@H]4CCC[C@H](C)[C@H](O)[C@@H](C)C(=O)C(C)(C)CCC(=O)O3)ccc2n1CCO` [compound 1, (1S,3S,10R,11S,12S,16R)-11-Hydroxy-3-(1-(2-hydroxyethyl)-2-methyl-1H-benzo[d]imidazol-5-yl)-8,8,10,12-tetramethyl-4-oxabicyclo[14.1.0] heptadecane-5,9-dione], which IC50 (A431 cells; A-431, 72 h) is on record?
**A.** 0.00332 ± 0.0006 µM

**Q.** And the IC50 (HEK293 cells; HEK293, 72 h)?
**A.** 0.00087 ± 0.00013 µM

**Q.** And the IC50 (SW480 cells; SW480, 72 h)?
**A.** 0.0176 ± 0.0035 µM

**Q.** For `CC(=O)SCCn1c(C)nc2cc([C@@H]3C[C@@H]4C[C@H]4CCC[C@H](C)[C@H](O)[C@@H](C)C(=O)C(C)(C)CCC(=O)O3)ccc21` [compound 14, S-(2-(5-((1S,3S,10R,11S,12S,16R)-11-Hydroxy-8,8,10,12-tetramethyl-5,9-dioxo-4-oxabicyclo[14.1.0]heptadecan-3-yl)-2-methyl-1H-benzo[d]imidazol-1-yl)ethyl) ethanethioate], which “Kb lower compared to 1” value ([1]; ratio of microtubule-binding affinity versus analog 1) is on record?
**A.** > 10 fold

**Q.** What does the source list for `Cc1nc2cc([C@@H]3C[C@@H]4C[C@H]4CCC[C@H](C)[C@H](O)[C@@H](C)C(=O)C(C)(C)CCC(=O)O3)ccc2n1CCSSCCn1c(C)nc2cc([C@@H]3C[C@@H]4C[C@H]4CCC[C@H](C)[C@H](O)[C@@H](C)C(=O)C(C)(C)CCC(=O)O3)ccc21` [compound 16, Dimer of (1S,3S,10R,11S,12S,16R)-11-hydroxy-3-(1-(2-mercaptoethyl)-2-methyl-1H-benzo[d]imidazol-5-yl)-8,8,10,12-tetramethyl-4-oxabicyclo[14.1.0]heptadecane-5,9-dione]?
**A.** IC50 (A431 cells; A-431, 72 h incubation, mean of three experiments ± SD): 0.00837 ± 0.00081 µM; IC50 (HEK293 cells; HEK293, 72 h incubation, mean of three experiments ± SD): 0.00208 ± 0.00053 µM; IC50 (SW480 cells; SW480, 72 h incubation, mean of three experiments ± SD): 0.00891 ± 0.00126 µM

**Q.** For “CysCE11: GE11 peptide with a Cys residue added to the N-terminus; custom-made by Biosyntan (CYHWYGYTPQNVI) [reference compound]”, which “microtubule binding (in words)” value [1] is on record?
**A.** no relevant microtubule binding

**Q.** With “EGF: epidermal growth factor, natural EGFR ligand” as the molecule, how does the IC50 (EGFR) read?
**A.** 0.0051 µM

**Q.** Which results are given for Flutax-2?
**A.** Flutax-2 Ka ([2]; 26 °C): 6.5 107 M-1; Flutax-2 Ka ([2]; 27 °C): 5.9 107 M-1; Flutax-2 Ka ([2]; 30 °C): 4.6 107 M-1; Flutax-2 Ka ([2]; 32 °C): 4.2 107 M-1; Flutax-2 Ka ([2]; 35 °C): 3.0 107 M-1; Flutax-2 Ka ([2]; 37 °C): 2.2 107 M-1; Flutax-2 Ka ([2]; 40 °C): 2.0 107 M-1; Flutax-2 Ka ([2]; 42 °C): 1.8 107 M-1

**Q.** With GE11 peptide as the molecule, how does the Kd (EGFR (Homo sapiens)) read?
**A.** 459 µM

**Q.** Which IC50 (EGFR) does the source give for “GE11: 12-amino acid residue peptide of the sequence YHWYGYTPQNVI, reported to bind to EGFR [reference compound]” here?
**A.** > 1000 µM

B1: epothilone-GE11 conjugate 4 (peptide)
peptide: CYHWYGYTPQNVI
modifications: side chain of the N-terminal Cys disulfide-linked to the thiol-containing epothilone analog 2; C-terminal amide (by the systematic name of 4)
**Q.** With B1 as the molecule, how does the Ka [3] read?
**A.** 9.3e+06 M⁻¹

**Q.** With CYHWYGYTPQNVI [Cys-GE11 peptide] as the molecule, how does the Ka [3] read?
**A.** 50000 M⁻¹
